Results as given in ChEMBL document CHEMBL3526109 (Drug Metab Dispos, 2011).

What was measured:
Conditions in all cases: in vivo
[1] = Drug excretion in bile duct-cannulated rat bile treated with [14C]brivanib alaninate at 100 mg/kg, po administered as single dose via gavage by HPLC analysis; type: ADME, organism-based
Plasma [2] = assay: Drug level in human plasma assessed as compound formation treated with [14C]brivanib alaninate at 800 mg, po administered as single dose via gavage measured after 12 hrs by HPLC analysis; type: ADME, organism-based
[3] = Drug excretion in bile duct-cannulated cynomolgus monkey bile treated with [14C]brivanib alaninate at 10 mg/kg, po administered as single dose via gavage by HPLC analysis; type: ADME, organism-based, Macaca fascicularis
Plasma [4] = assay: Drug level in Sprague-Dawley rat plasma assessed as compound formation treated with [14C]brivanib alaninate at 100 mg/kg, po administered as single dose via gavage measured after 6 hrs by HPLC analysis; type: ADME, organism-based
Plasma [5] = assay: Drug level in human plasma assessed as compound formation treated with [14C]brivanib alaninate at 800 mg, po administered as single dose via gavage measured after 1 hr by HPLC analysis; type: ADME, organism-based
Plasma [6] = assay: Drug level in cynomolgus monkey plasma assessed as compound formation treated with [14C]brivanib alaninate at 10 mg/kg, po administered as single dose via gavage measured after 4 hrs by HPLC analysis; type: ADME, organism-based, Macaca fascicularis
Plasma [7] = assay: Drug level in Sprague-Dawley rat plasma assessed as compound formation treated with [14C]brivanib alaninate at 100 mg/kg, po administered as single dose via gavage measured after 1 hr by HPLC analysis; type: ADME, organism-based
[8] = Drug excretion in human urine treated with [14C]brivanib alaninate at 800 mg, po administered as single dose […] by HPLC analysis; type: ADME, organism-based
Plasma [9] = assay: Drug level in cynomolgus monkey plasma assessed as compound formation treated with [14C]brivanib alaninate at 10 mg/kg, po administered as single dose via gavage measured after 1 hr by HPLC analysis; type: ADME, organism-based, Macaca fascicularis
[10] = Drug excretion in human feces treated with [14C]brivanib alaninate at 800 mg, po administered as single dose […] by HPLC analysis; type: ADME, organism-based
[11] = Drug excretion in cynomolgus monkey feces treated with [14C]brivanib alaninate at 10 mg/kg, po administered as single dose via gavage by HPLC analysis; type: ADME, organism-based, Macaca fascicularis
Plasma [12] = assay: Drug level in human plasma assessed as compound formation treated with [14C]brivanib alaninate at 800 mg, po administered as single dose via gavage measured after 4 hrs by HPLC analysis; type: ADME, organism-based
Plasma [13] = assay: Drug level in Sprague-Dawley rat plasma assessed as compound formation treated with [14C]brivanib alaninate at 100 mg/kg, po administered as single dose via gavage measured after 2 hrs by HPLC analysis; type: ADME, organism-based
[14] = Drug excretion in cynomolgus monkey urine treated with [14C]brivanib alaninate at 10 mg/kg, po administered as single dose via gavage by HPLC analysis; type: ADME, organism-based, Macaca fascicularis
Plasma [15] = assay: Drug level in cynomolgus monkey plasma assessed as compound formation treated with [14C]brivanib alaninate at 10 mg/kg, po administered as single dose via gavage measured after 12 hrs by HPLC analysis; type: ADME, organism-based, Macaca fascicularis
[16] = Drug excretion in Sprague-Dawley rat feces treated with [14C]brivanib alaninate at 100 mg/kg, po administered as single dose via gavage by HPLC analysis; type: ADME, organism-based
Plasma [17] = assay: Drug level in cynomolgus monkey plasma assessed as compound formation treated with [14C]brivanib alaninate at 10 mg/kg, po administered as single dose via gavage measured after 6 hrs by HPLC analysis; type: ADME, organism-based, Macaca fascicularis
Plasma [18] = assay: Drug level in human plasma assessed as compound formation treated with [14C]brivanib alaninate at 800 mg, po administered as single dose via gavage measured after 8 hrs by HPLC analysis; type: ADME, organism-based
Plasma [19] = assay: Drug level in human plasma assessed as compound formation treated with [14C]brivanib alaninate at 800 mg, po administered as single dose via gavage measured after 2 hrs by HPLC analysis; type: ADME, organism-based
Plasma [20] = assay: Drug level in cynomolgus monkey plasma assessed as compound formation treated with [14C]brivanib alaninate at 10 mg/kg, po administered as single dose via gavage measured after 2 hrs by HPLC analysis; type: ADME, organism-based, Macaca fascicularis
Homo sapiens [21] = assay: Drug uptake in human plasma treated with [14C]brivanib alaninate assessed as AUC (0 to 12 hrs) of total radio activity at 800 mg, po administered as single oral dose by HPLC analysis; type: ADME, organism-based
Homo sapiens [22] = assay: AUC (0 to 12 hrs) human plasma treated with [14C]brivanib alaninate at 800 mg, po administered as single oral dose by HPLC analysis; type: ADME, organism-based
Rattus norvegicus [23] = assay: AUC (0 to 6 hrs) Sprague-Dawley rat plasma treated with [14C]brivanib alaninate at 100 mg/kg, po administered as single oral dose by HPLC analysis; type: ADME, organism-based
Cynomolgus monkey [24] = assay: AUC (0 to 12 hrs) cynomolgus monkey plasma treated with [14C]brivanib alaninate at 10 mg/kg, po administered as single oral dose by HPLC analysis; type: ADME, organism-based, Macaca fascicularis
[25] = Drug excretion in Sprague-Dawley rat urine treated with [14C]brivanib alaninate at 100 mg/kg, po administered as single dose via gavage by HPLC analysis; type: ADME, organism-based
Cynomolgus monkey [26] = assay: Drug uptake in cynomolgus monkey plasma treated with [14C]brivanib alaninate assessed as AUC (0 to 12 hrs) of total radio activity at 10 mg/kg, po administered as single oral dose by HPLC analysis; type: ADME, organism-based, Macaca fascicularis
Rattus norvegicus [27] = assay: Drug uptake in Sprague-Dawley rat plasma treated with [14C]brivanib alaninate assessed as AUC (0 to 6 hrs) of total radio activity at 100 mg/kg, po administered as single oral dose by HPLC analysis; type: ADME, organism-based
[28] = Drug level in Sprague-Dawley rat urine treated with [14C]brivanib alaninate at 100 mg/kg, po administered as single dose via gavage by mass spectrometry; type: ADME, organism-based

| Compound recovery [1] | Compound recovery (Plasma [2]) | Compound recovery [3] | Compound recovery (Plasma [4]) [%] | Compound recovery (Plasma [5]) | Compound recovery (Plasma [6]) | Compound recovery (Plasma [7]) [%] | Compound recovery [8] | Compound recovery (Plasma [9]) | Compound recovery [10] | Compound recovery [11] | Compound recovery (Plasma [12]) | Compound recovery (Plasma [13]) [%] | Compound recovery [14] | Compound recovery (Plasma [15]) | Compound recovery [16] | Compound recovery (Plasma [17]) | Compound recovery (Plasma [18]) | Compound recovery (Plasma [19]) | Compound recovery (Plasma [20]) | SMILES | also measured |
| --- | --- | --- | --- | --- | --- | --- | --- | --- | --- | --- | --- | --- | --- | --- | --- | --- | --- | --- | --- | --- | --- |
| 27.4% | 1.2% | metabolite_not_detected | 9.1 | 0.8% | metabolite_not_detected | 5.1 | 0.8% | metabolite_not_detected | metabolite_not_detected | metabolite_not_detected | metabolite_not_detected | 6.5 | 0.8% | metabolite_not_detected | metabolite_not_detected | metabolite_not_detected | 2% | 3% | metabolite_not_detected | Cc1cc2c(F)c(Oc3ncnn4cc(O[C@@H]5O[C@H](C(=O)O)[C@@H](O)[C@H](O)[C@H]5O)c(C)c34)ccc2[nH]1 |  |
| 25.4% | 8.9% | 1.9% | 20.9 | 8.8% | 9.4% | 30.7 | metabolite_not_detected | 2.9% | metabolite_not_detected | metabolite_not_detected | 4.4% | 26.8 | 0.7% | 5.7% | 4.6% | 9.1% | 7.6% | 6.7% | 5.9% | Cc1cc2c(F)c(Oc3ncnn4cc(OS(=O)(=O)O)c(C)c34)ccc2[nH]1 | AUC metabolite/AUC radiolabel (Homo sapiens [21]): 5.8%; AUC (Homo sapiens [22]): 3835.4 ugequiv/l.hr; AUC (Rattus norvegicus [23]): 37494.4 ugequiv/l.hr; AUC (Cynomolgus monkey [24]): 5622.3 ugequiv/l.hr; Compound recovery [25]: 2.7%; AUC metabolite/AUC radiolabel (Cynomolgus monkey [26]): 8.1%; AUC metabolite/AUC radiolabel (Rattus norvegicus [27]): 26.8% |
| 1.8% |  | metabolite_not_detected |  |  |  |  | metabolite_not_detected |  | metabolite_not_detected | metabolite_not_detected |  |  | metabolite_not_detected |  | metabolite_not_detected |  |  |  |  | Cc1c(O)cn2ncnc(Oc3ccc4[nH]c(C(=O)O)cc4c3F)c12 | Compound recovery [28]: metabolite_detected |
| 4% | 24.3% | 1.4% | 20 | metabolite_not_detected | 4.6% | 18.2 | 3.3% | 3.3% | metabolite_not_detected | metabolite_not_detected | 20% | 22.1 | 0.3% | 12.5% | metabolite_not_detected | 9.1% | 23% | 11.3% | 3% | Cc1c(OS(=O)(=O)O)cn2ncnc(Oc3ccc4[nH]c(C(=O)O)cc4c3F)c12 | AUC metabolite/AUC radiolabel (Homo sapiens [21]): 14.7%; AUC (Homo sapiens [22]): 9668.9 ugequiv/l.hr; AUC (Rattus norvegicus [23]): 29545.4 ugequiv/l.hr; AUC (Cynomolgus monkey [24]): 4597.3 ugequiv/l.hr; Compound recovery [25]: 5.1%; AUC metabolite/AUC radiolabel (Cynomolgus monkey [26]): 6.6%; AUC metabolite/AUC radiolabel (Rattus norvegicus [27]): 21.1% |
| metabolite_not_detected |  | metabolite_not_detected |  |  |  |  | metabolite_not_detected |  | metabolite_not_detected | metabolite_not_detected |  |  | metabolite_not_detected |  | 1.5% |  |  |  |  | Cc1c(O)cn2ncnc(Oc3ccc4[nH]c(CO)cc4c3F)c12 | Compound recovery [25]: 0.4% |
| metabolite_not_detected |  | 0.4% |  |  |  |  | metabolite_not_detected |  | metabolite_not_detected | metabolite_not_detected |  |  | metabolite_not_detected |  | metabolite_not_detected |  |  |  |  | Cc1c(OS(=O)(=O)O)cn2ncnc(Oc3ccc4[nH]c(CO)cc4c3F)c12 | Compound recovery [25]: metabolite_not_detected |
| 1.4% | metabolite_not_detected | metabolite_not_detected | 6 | metabolite_not_detected | 2.7% | 4.7 | metabolite_not_detected | 0.9% | metabolite_not_detected | 0.5% | metabolite_not_detected | 6.4 | 0.2% | 3.3% | 1.8% | 2.6% | metabolite_not_detected | metabolite_not_detected | 1.7% | Cc1cc2c(F)c(Oc3ncnn4cc(OCC(=O)O)c(C)c34)ccc2[nH]1 | Compound recovery [28]: metabolite_detected |
| 10.8% | metabolite_not_detected | 0.4% | 1.7 | metabolite_not_detected | metabolite_not_detected | 2.4 | metabolite_not_detected | metabolite_not_detected | metabolite_not_detected | 1.8% | metabolite_not_detected | 1.9 | metabolite_not_detected | metabolite_not_detected | 42.8% | metabolite_not_detected | metabolite_not_detected | metabolite_not_detected | metabolite_not_detected | Cc1cc2c(F)c(Oc3ncnn4cc(O)c(C)c34)ccc2[nH]1 |  |
